According to US9796711B2, “Substituted pyrazolo[3,4-b]pyridin-6-carboxylic acids and method of use” (AbbVie S.àr.l., priority 2015, dated 2017):

How the values were obtained:
ΔF508-CFTR [1] = molecular target: T1, ΔF508-CFTR (Homo sapiens, UniProt P13569, DEL508-508); test: CFTR cell surface levels using HRP-tagged ΔF508-CFTR expressing CFBE cells, in the presence of a co-corrector; type: cell-based
T1 construct: host or cells: CFBE41o-, doxycycline-inducible
How it was run: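 Cells were seeded with 0.5 μg/mL doxycycline and held 68 h at 37 °C. Test compounds plus 3 μM co-corrector (final 0.1% DMSO) were then added for 20 h at 33 °C. Washed cells received HRP substrate, and luminescence was normalized between DMSO and 3 μM co-corrector controls.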

ΔF508-CFTR [2] = molecular target: T1, ΔF508-CFTR; test: CFTR cell surface levels using HRP-tagged ΔF508-CFTR expressing CFBE cells, intrinsic corrector capacity; type: cell-based
How it was run: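 Here the cells express ΔF508-CFTR with horseradish peroxidase inserted in extracellular loop 4, so only rescued channel at the surface gives luminescent signal. Compounds act on their own, 20 h at the reduced temperature of 33 °C; values are percent activity relative to DMSO and a 3 μM corrector.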

[3] = HRP-tagged ΔF508-CFTR expressing CFBE cells, in the presence of 3 μM co-corrector
[4] = HRP-tagged ΔF508-CFTR expressing CFBE cells, in the presence of 3 μM co-corrector, read-out: EC50
[5] = HRP-tagged ΔF508-CFTR CFBE41o- cells, compounds alone (intrinsic corrector capacity), 20 hours at 33° C., positive control 3 μM corrector
[6] = HRP-tagged ΔF508-CFTR CFBE41o- cells, compounds alone (intrinsic corrector capacity), 20 hours at 33° C., read-out: EC50
[7] = HRP-tagged ΔF508-CFTR expressing CFBE cells, intrinsic corrector capacity (no co-corrector), 33° C., 20 hours
[8] = HRP-tagged ΔF508-CFTR expressing CFBE cells, intrinsic corrector capacity (no co-corrector), 33° C., 20 hours, read-out: EC50

T1 sequence (P13569 with tags, fused parts or gaps DEL508-508): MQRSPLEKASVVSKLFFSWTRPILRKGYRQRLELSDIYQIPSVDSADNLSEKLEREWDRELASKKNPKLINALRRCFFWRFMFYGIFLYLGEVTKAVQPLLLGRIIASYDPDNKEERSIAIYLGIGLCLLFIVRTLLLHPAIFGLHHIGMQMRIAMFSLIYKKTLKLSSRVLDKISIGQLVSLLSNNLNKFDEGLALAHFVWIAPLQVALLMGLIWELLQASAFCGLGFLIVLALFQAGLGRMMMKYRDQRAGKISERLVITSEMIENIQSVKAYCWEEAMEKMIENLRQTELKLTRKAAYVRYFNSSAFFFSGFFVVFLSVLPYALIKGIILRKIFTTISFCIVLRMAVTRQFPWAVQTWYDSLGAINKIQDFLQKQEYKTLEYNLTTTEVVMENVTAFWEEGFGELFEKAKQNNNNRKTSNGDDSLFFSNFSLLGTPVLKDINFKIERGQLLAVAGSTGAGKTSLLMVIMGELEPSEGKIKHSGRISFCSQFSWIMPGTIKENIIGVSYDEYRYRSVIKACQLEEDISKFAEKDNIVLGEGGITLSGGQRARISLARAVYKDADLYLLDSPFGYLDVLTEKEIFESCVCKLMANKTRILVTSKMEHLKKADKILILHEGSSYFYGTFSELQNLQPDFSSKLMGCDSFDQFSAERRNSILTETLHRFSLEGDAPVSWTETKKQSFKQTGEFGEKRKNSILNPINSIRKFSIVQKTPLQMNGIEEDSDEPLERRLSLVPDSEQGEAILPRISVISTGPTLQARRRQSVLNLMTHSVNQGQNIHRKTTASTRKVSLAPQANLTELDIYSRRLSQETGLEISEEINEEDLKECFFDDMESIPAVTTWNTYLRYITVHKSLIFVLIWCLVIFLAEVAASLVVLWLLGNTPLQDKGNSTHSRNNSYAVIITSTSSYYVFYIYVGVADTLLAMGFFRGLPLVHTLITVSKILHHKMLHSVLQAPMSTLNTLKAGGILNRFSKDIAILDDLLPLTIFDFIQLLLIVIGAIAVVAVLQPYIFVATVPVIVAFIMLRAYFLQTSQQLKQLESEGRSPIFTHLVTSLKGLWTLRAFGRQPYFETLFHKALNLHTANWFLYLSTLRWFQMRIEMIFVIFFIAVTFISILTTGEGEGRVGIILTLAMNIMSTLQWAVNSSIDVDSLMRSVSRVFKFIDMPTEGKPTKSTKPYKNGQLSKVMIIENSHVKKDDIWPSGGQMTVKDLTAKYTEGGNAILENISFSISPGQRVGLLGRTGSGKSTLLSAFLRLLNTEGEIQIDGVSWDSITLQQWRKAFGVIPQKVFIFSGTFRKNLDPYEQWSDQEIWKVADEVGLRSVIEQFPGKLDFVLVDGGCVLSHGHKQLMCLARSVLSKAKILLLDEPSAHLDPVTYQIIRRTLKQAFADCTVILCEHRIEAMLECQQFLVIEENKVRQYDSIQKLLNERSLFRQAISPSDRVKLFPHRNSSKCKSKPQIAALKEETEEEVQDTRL

Structure (SMILES)	% Activation (ΔF508-CFTR [1]; [3])	EC50 (ΔF508-CFTR [1]; [4])	% Activation (ΔF508-CFTR [2]; [5])	EC50 (ΔF508-CFTR [2]; [6])	% Activation (ΔF508-CFTR [2]; [7])	EC50 (ΔF508-CFTR [2]; [8])	EC50 (ΔF508-CFTR [1])	EC50 (ΔF508-CFTR [2])
CO[C@H]1CCC[C@@H](n2nc(C(C)C)c3c(-c4ccc(N5CCOCC5)cc4)cc(C(=O)O)nc32)C1 [compound 205, 1-[(1R,3S)-3-methoxycyclohexyl]-4-[4-(morpholin-4-yl)phenyl]-3-(propan-2-yl)-1H-pyrazolo[3,4-b]pyridine-6-carboxylic acid]	261.5%	819 nM	109%	1110 nM				
Cc1cccc(-n2nc(C(C)C)c3c(N4CCC(CO)CC4)cc(C(=O)O)nc32)c1 [compound 213, 4-[4-(hydroxymethyl)piperidin-1-yl]-1-(3-methylphenyl)-3-(propan-2-yl)-1H-pyrazolo[3,4-b]pyridine-6-carboxylic acid]	456.97%	382 nM	247.33%	679 nM				
N#CC1CCN(c2ccc(-c3cc(C(=O)O)nc4c3c(C3CCC3)nn4C3CCCCC3)cn2)CC1 [compound 220, 4-[6-(4-cyanopiperidin-1-yl)pyridin-3-yl]-3-cyclobutyl-1-cyclohexyl-1H-pyrazolo[3,4-b]pyridine-6-carboxylic acid]	470.77%	369 nM	245.37%	786 nM				
CC(C)c1nn(-c2cccc(N3CCCC3)c2)c2nc(C(=O)O)cc(-c3ccc(N4CCC(C#N)CC4)nc3)c12 [compound 222, 4-[6-(4-cyanopiperidin-1-yl)pyridin-3-yl]-3-(propan-2-yl)-1-[3-(pyrrolidin-1-yl)phenyl]-1H-pyrazolo[3,4-b]pyridine-6-carboxylic acid]	612.47%	268 nM	429.93%	433 nM				
COCC1CCN(c2cc(C(=O)O)nc3c2c(C(C)C)nn3-c2cccc(C)c2)CC1 [compound 227, 4-[4-(methoxymethyl)piperidin-1-yl]-1-(3-methylphenyl)-3-(propan-2-yl)-1H-pyrazolo[3,4-b]pyridine-6-carboxylic acid]	452.6%	340 nM	305.45%	666 nM				
COCCC1CCN(c2cc(C(=O)O)nc3c2c(C(C)C)nn3-c2cccc(C)c2)CC1 [compound 228, 4-[4-(2-methoxyethyl)piperidin-1-yl]-1-(3-methylphenyl)-3-(propan-2-yl)-1H-pyrazolo[3,4-b]pyridine-6-carboxylic acid]	475.1%	397 nM	297.15%	680 nM				
CC(C)c1nn(-c2cccc(N3CCOCC3)n2)c2nc(C(=O)O)cc(-c3ccc(N4CCOCC4)cc3)c12 [compound 244, 4-[4-(morpholin-4-yl)phenyl]-1-[6-(morpholin-4-yl)pyridin-2-yl]-3-(propan-2-yl)-1H-pyrazolo[3,4-b]pyridine-6-carboxylic acid]	514.48%	458 nM	320.17%	473 nM				
CC(C)c1nn(-c2cc(F)cc(F)c2)c2nc(C(=O)O)cc(-c3ccc(N4CCOCC4)cc3)c12 [compound 268, 1-(3,5-difluorophenyl)-4-[4-(morpholin-4-yl)phenyl]-3-(propan-2-yl)-1H-pyrazolo[3,4-b]pyridine-6-carboxylic acid]	425.68%	394 nM	251.82%	616 nM				
CN(C)C[C@@H](F)C1CCN(c2cc(C(=O)O)nc3c2c(C2CCC2)nn3-c2ccccc2)CC1 [compound 456, 3-cyclobutyl-4-{4-[(1S)-2-(dimethylamino)-1-fluoroethyl]piperidin-1-yl}-1-phenyl-1H-pyrazolo[3,4-b]pyridine-6-carboxylic acid]	414.5%	335 nM			253.65%	845 nM		
CCOC(=O)N1CCN(c2cc(C(=O)O)nc3c2c(C2CCC2)nn3-c2ccccc2)CC1 [compound 539, 3-cyclobutyl-4-[4-(ethoxycarbonyl)piperazin-1-yl]-1-phenyl-1H-pyrazolo[3,4-b]pyridine-6-carboxylic acid]	564.8%	198 nM			366.3%	370 nM		
O=C(O)c1cc(N2CCC(CN3CCCC3)CC2)c2c(C3CCC3)nn(-c3ccccc3)c2n1 [compound 557, 3-cyclobutyl-1-phenyl-4-{4-[(pyrrolidin-1-yl)methyl]piperidin-1-yl}-1H-pyrazolo[3,4-b]pyridine-6-carboxylic acid]	418.2%	200 nM			221.7%	444 nM		
O=C(O)c1cc(N2CCC(N3CCOCC3)CC2)c2c(C3CCC3)nn(-c3ccccc3)c2n1 [compound 560, 3-cyclobutyl-4-[4-(morpholin-4-yl)piperidin-1-yl]-1-phenyl-1H-pyrazolo[3,4-b]pyridine-6-carboxylic acid]	437.33%				265.05%		171 nM	393 nM
O=C(O)c1cc(N2CCC(CCN3CCCC3)CC2)c2c(C3CCC3)nn(-c3ccccc3)c2n1 [compound 574, 3-cyclobutyl-1-phenyl-4-{4-[2-(pyrrolidin-1-yl)ethyl]piperidin-1-yl}-1H-pyrazolo[3,4-b]pyridine-6-carboxylic acid]	469.5%	190 nM			294%	479 nM		
O=C(O)c1cc(N2CCC(CCN3CCOCC3)CC2)c2c(C3CCC3)nn(-c3ccccc3)c2n1 [compound 575, 3-cyclobutyl-4-{4-[2-(morpholin-4-yl)ethyl]piperidin-1-yl}-1-phenyl-1H-pyrazolo[3,4-b]pyridine-6-carboxylic acid]	431.9%				268.4%		209 nM	512 nM
O=C(O)c1cc(N2CCC(N3CCCCC3)CC2)c2c(C3CCC3)nn(-c3ccccc3)c2n1 [compound 576, 4-([1,4′-bipiperidin]-1′-yl)-3-cyclobutyl-1-phenyl-1H-pyrazolo[3,4-b]pyridine-6-carboxylic acid]	390.78%				175.2%		396 nM	496 nM
CC(C)c1nn(-c2ccc(F)cc2)c2nc(C(=O)O)cc(N3CCC(C(C)(C)O)CC3)c12 [compound 656, 1-(4-fluorophenyl)-4-[4-(2-hydroxypropan-2-yl)piperidin-1-yl]-3-(propan-2-yl)-1H-pyrazolo[3,4-b]pyridine-6-carboxylic acid]	415.7%	191 nM			287.7%	437 nM		
O=C(O)c1cc(N2CCC(N3CCOCC3)CC2)c2c(C3CCC3)nn(-c3ccc(F)cc3)c2n1 [compound 679, 3-cyclobutyl-1-(4-fluorophenyl)-4-[4-(morpholin-4-yl)piperidin-1-yl]-1H-pyrazolo[3,4-b]pyridine-6-carboxylic acid]	503.6%	299 nM			279.5%	370 nM		
CC(C1CCN(c2cc(C(=O)O)nc3c2c(C2CCC2)nn3-c2ccccc2)CC1)N1CCOCC1 (stereo not shown) [compound 683, 3-cyclobutyl-4-{4-[1-(morpholin-4-yl)ethyl]piperidin-1-yl}-1-phenyl-1H-pyrazolo[3,4-b]pyridine-6-carboxylic acid]	600.53%	60.7 nM			395.1%	141 nM		
CC1CCN(CCC2CCN(c3cc(C(=O)O)nc4c3c(C3CCC3)nn4-c3ccccc3)CC2)CC1 [compound 687, 3-cyclobutyl-4-{4-[2-(4-methylpiperidin-1-yl)ethyl]piperidin-1-yl}-1-phenyl-1H-pyrazolo[3,4-b]pyridine-6-carboxylic acid]	454%	89.7 nM			264.95%	171 nM		
CN1CCC2(CC1)CCN(c1cc(C(=O)O)nc3c1c(C1CCC1)nn3-c1ccccc1)CC2 [compound 699, 3-cyclobutyl-4-(9-methyl-3,9-diazaspiro[5.5]undecan-3-yl)-1-phenyl-1H-pyrazolo[3,4-b]pyridine-6-carboxylic acid]	432%	169 nM			247.63%	622 nM		
O=C(O)c1cc(N2CCC(N3CCN(C4CC4)CC3)CC2)c2c(C3CCC3)nn(-c3ccccc3)c2n1 [compound 738, 3-cyclobutyl-4-[4-(4-cyclopropylpiperazin-1-yl)piperidin-1-yl]-1-phenyl-1H-pyrazolo[3,4-b]pyridine-6-carboxylic acid]	472.1%	110 nM			267.6%	245 nM		
CC(C)c1nn(-c2ccc(F)cc2)c2nc(C(=O)O)cc(N3CCC(N4CCN(C5CC5)CC4)CC3)c12 [compound 754, 4-[4-(4-cyclopropylpiperazin-1-yl)piperidin-1-yl]-1-(4-fluorophenyl)-3-(propan-2-yl)-1H-pyrazolo[3,4-b]pyridine-6-carboxylic acid]	467.3%	153 nM			254.1%	385 nM		
